The values below come from PMC2362735, “New semisynthetic vinca alkaloids: chemical, biochemical and cellular studies” (British Journal of Cancer, 1999).

Usually T/C stands for the result in the treated group divided by that in the control group, in per cent.

Molecules are shown by their SMILES.

In series [1] the target is T1, calmodulin (Bos taurus, UniProt P62157).
T1 construct: Calmodulin from bovine brain was purified to homogeneity using Phenyl-Sepharose (Pharmacia) chromatography; from tissue; host or cells: bovine brain
In words: Anti-calmodulin activity assay: calmodulin-induced PFK inactivation. It counts as biochemical, bovine. Particulars: drug 20 M. The text has this: The numerous antimitotic drugs already developed and therapeu- tically used for a large number of pathologies belong to different classes based on their chemical structure and other distinctive features. Antimitotic drugs usually target the tubulin/microtubule network of the cytoskeleton that is formed by assembly of cyto- plasmic tubulin dimers. The stability of the different microtubular structures varies considerably; some of their functions depend on their lability. The lability is augmented by the extreme sensitivity to various drugs. Several synthetic and natural compounds interact specifically with tubulin and/or microtubule, fundamentally destroying its dynamic character and leading to cell death. […] Because of their extensive clinical use, it is important to synthesize additional agents having at least the same biological activity. […] Nevertheless, it is unclear yet how the anti-calmodulin activity of these drugs is related to their desired and undesired pharmacological effects. […] The synthesis of the KAR derivatives are presented. […] Taxol, GTP and trifluoperazine were purchased from Sigma. All organic reagents for synthesis of the new compounds were obtained from Aldrich and were of the highest grade. All other chemicals were reagent grade commercial preparations. […] Tubulin was stored in 1 M sucrose, 10 mM sodium phosphate buffer, 0.5 mM magnesium chloride and 0.1 mM GTP, pH 7.0, at -80C and dialysed against the appropriate buffer before use. […] PFK, aldolase and glycerol-3-phosphate dehydrogenase- triosephosphate isomerase purified from rabbit skeletal muscle were purchased in ammonium sulphate suspensions from Sigma or Boehringer. The enzyme suspensions were centrifuged at 10 000g for 5 min. The pellets were suspended in the appropriate buffer, then the enzymes were gel filtered or dialysed in the same buffer to remove ammonium sulphate. […] (Figure 1B; R1 , CH3; R2 , CH2 CH2 Cl). […] After 2 h incubation at room temperature, 200 ml dried toluene was added to the reaction mixture. […] The mixture was stirred for 30 min. After separation of the organic phase, it was washed with water (3 x 30 ml) and dried with potassium sulphate and evaporated on a water bath of 35-40C at 20-27 hPa. The resulting material was chromatographed on silica gel (500 g, bead size of 0.040- 0.063 mm) column (30 mm x 500 mm) using ethyl acetate/ethanol (9:1) mixture as eluent. […] The mixture was kept for 4 h at room temperature and then evaporated on a water bath at 40C under a vacuum of 80 hPa to a final volume of 5-6 ml. […] (Figure 1B, R1 , CHO; R2 , CH2 CH2 Cl). […] Synthesis of KAR-4 [3-allyl-2,4-dioxo-3,5-spiro-oxazolidino- 4-deacetoxy-vinblastine] (Figure 1B; R1 , CH3; R2 , CH2 CH=CH2 ). […] NMR measurements were carried out on a Varian Unity plus-500 instrument (500 MHz for 1H and 125 MHz for 13C) in DMSO. Chemical shifts were determined relative to dTMS = 0.00 p.p.m. 1H and 13C signal assignments were verified by a concerted use of two-dimensional 1H-1H and 1H-13C shift correlation methods (DQFCOSY, HSQC, HMBC) and NOESY experiments. The gradient-enhanced DQFCOSY, HSQC, HMBC and NOESY experiments were recorded by using the standard spectrometer software package. A mixing time of tmix = 0.5 s was used for the NOESY experiments. […] Mass spectrum was recorded on a Kratos MS 80 instrument using FAB.

Series [2] has as its system mouse leukaemia P388. More on the design: method as in Orosz et al, 1997a. Particulars: ref Orosz et al, 1997a, cited from earlier work.
For series [3], the system named is Mouse leukaemia P388 cells. Put plainly: In vivo anti-tumour effect on P388 mouse leukaemia, single i.p. dose. Particulars: P388 mice, single dose i.p. The text has this: The numerous antimitotic drugs already developed and therapeu- tically used for a large number of pathologies belong to different classes based on their chemical structure and other distinctive features. Antimitotic drugs usually target the tubulin/microtubule network of the cytoskeleton that is formed by assembly of cyto- plasmic tubulin dimers. The stability of the different microtubular structures varies considerably; some of their functions depend on their lability. The lability is augmented by the extreme sensitivity to various drugs. Several synthetic and natural compounds interact specifically with tubulin and/or microtubule, fundamentally destroying its dynamic character and leading to cell death. […] Because of their extensive clinical use, it is important to synthesize additional agents having at least the same biological activity. […] Nevertheless, it is unclear yet how the anti-calmodulin activity of these drugs is related to their desired and undesired pharmacological effects. […] The synthesis of the KAR derivatives are presented. […] Taxol, GTP and trifluoperazine were purchased from Sigma. All organic reagents for synthesis of the new compounds were obtained from Aldrich and were of the highest grade. All other chemicals were reagent grade commercial preparations. […] Tubulin was stored in 1 M sucrose, 10 mM sodium phosphate buffer, 0.5 mM magnesium chloride and 0.1 mM GTP, pH 7.0, at -80C and dialysed against the appropriate buffer before use. […] PFK, aldolase and glycerol-3-phosphate dehydrogenase- triosephosphate isomerase purified from rabbit skeletal muscle were purchased in ammonium sulphate suspensions from Sigma or Boehringer. The enzyme suspensions were centrifuged at 10 000g for 5 min. The pellets were suspended in the appropriate buffer, then the enzymes were gel filtered or dialysed in the same buffer to remove ammonium sulphate. […] (Figure 1B; R1 , CH3; R2 , CH2 CH2 Cl). […] After 2 h incubation at room temperature, 200 ml dried toluene was added to the reaction mixture. […] The mixture was stirred for 30 min. After separation of the organic phase, it was washed with water (3 x 30 ml) and dried with potassium sulphate and evaporated on a water bath of 35-40C at 20-27 hPa. The resulting material was chromatographed on silica gel (500 g, bead size of 0.040- 0.063 mm) column (30 mm x 500 mm) using ethyl acetate/ethanol (9:1) mixture as eluent. […] The mixture was kept for 4 h at room temperature and then evaporated on a water bath at 40C under a vacuum of 80 hPa to a final volume of 5-6 ml. […] (Figure 1B, R1 , CHO; R2 , CH2 CH2 Cl). […] Synthesis of KAR-4 [3-allyl-2,4-dioxo-3,5-spiro-oxazolidino- 4-deacetoxy-vinblastine] (Figure 1B; R1 , CH3; R2 , CH2 CH=CH2 ). […] NMR measurements were carried out on a Varian Unity plus-500 instrument (500 MHz for 1H and 125 MHz for 13C) in DMSO. Chemical shifts were determined relative to dTMS = 0.00 p.p.m. 1H and 13C signal assignments were verified by a concerted use of two-dimensional 1H-1H and 1H-13C shift correlation methods (DQFCOSY, HSQC, HMBC) and NOESY experiments. The gradient-enhanced DQFCOSY, HSQC, HMBC and NOESY experiments were recorded by using the standard spectrometer software package. A mixing time of tmix = 0.5 s was used for the NOESY experiments.

Take `CC[C@]1(O)C[C@@H]2CN(CCc3c([nH]c4ccccc34)[C@@](C(=O)OC)(c3cc4c(cc3OC)N(C)[C@@H]3[C@]45CCN4CC=C[C@@](CC)(C[C@@]36OC(=O)N(CCCl)C6=O)[C@H]45)C2)C1` [KAR-2, 3′-(β-chloroethyl)-2′,4′-dioxo-3,5′-spiro-oxazolidino-4-deacetoxy-vinblastine]: in series [1] (PFK 1.2 M protomers, calmodulin 3 M, 60 min, without calmodulin 66.6 U mg-1, with calmodulin 8.0 U mg-1), the “Effect on calmodulin induced PFK inactivation: Activity (U mg-1)” value was 11.1 U mg-1. In addition, the “anti-calmodulin activity in the PFK assay (in words)” value in series [1] was “does not display anti-calmodulin activity”. Moreover, the “Anti-calmodulin activity: Efficiency (%)” value in series [1] (calculated from the activity data (100% = PFK without calmodulin, 0% = PFK with calmodulin)) is reported as 5%. Further, the T/C in series [2] (P388, 1 mg kg-1, eightfold treatment) is given as 174%. Also, the “neurotoxic side-effects (e.g. paralysis of bladder or lower extremities)” value in series [2] (P388 in vivo tests) is “did not induce neurotoxic side-effects”. This molecule also came in with a maximal tolerated dose in series [3] of 80 mg/kg.
